Laboratory results from US9765105B2, “Macrolide compound” (Pulike Biological Engineering, Inc., priority 2013, dated 2017).

What was measured:
Test in all cases: in vitro susceptibility, MIC by mini broth dilution
Type in all cases: cell-based
[1] = test system: Staphylococcus aureus CVCC26003; settings: strain CVCC26003
In short: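 S. aureus CVCC26003 was revived and subcultured twice, 20 h each at 35° C, on solid medium, then diluted 1:200 in CAMHB liquid medium. Compounds received an 11-step two-fold DMSO dilution in parallel duplicate rows. MIC was read by mini broth dilution per NCCLS guidance.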

[2] = test system: Actinobacillus pleuropneumoniae CVCC262; settings: strain CVCC262
In short: (§1)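 Read-out is the minimum inhibitory concentration, measured by mini broth dilution following the US NCCLS approved standard, with 11 two-fold compound dilutions in DMSO and a 1:200-diluted inoculum.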

Haemophilus parasuis = test system: Haemophilus parasuis
In short: as §1

[3] = test system: Pasteurella multocida CVCC399; settings: strain CVCC399
In short: as §1

[4] = test system: Streptococcus equines CVCC556; settings: strain CVCC556
In short: as §1

Row | Compound | MIC values, Staphylococcus aureus CVCC26003 [1] | MIC values, Actinobacillus pleuropneumoniae CVCC262 [2] | MIC values, Haemophilus parasuis (Haemophilus parasuis) | MIC values, Pasteurella multocida CVCC399 [3] | MIC values, Streptococcus equines CVCC556 [4]
1 | CCC(CO)NC[C@]1(O)[C@H](C)O[C@@H](O[C@H]2[C@H](C)[C@@H](O[C@@H]3O[C@H](C)C[C@H](N(C)C)[C@H]3O)[C@](C)(O)C[C@@H](C)NC[C@H](C)[C@@H](O)[C@](C)(O)[C@@H](CC)OC(=O)[C@@H]2C)C[C@@]1(C)OC (stereo partly drawn) [syzx-51, (2R,3S,4R,5S,8R,10R,11R,12S,13S,14R)-13-[(2,6-dideoxy-3-C-methyl-3-O-methyl-4-C-[(1-hydroxymethyl-propylamino)-methyl]-α-L-ribopyranosyl)oxy]-2-ethyl-3,4,10-trihydroxy-3,5,8,10,12,14-hexamethyl-11-[[3,4,6-trideoxy-3-(dimethylamino)-β-D-xylo-hexopyranosy]oxy]-1-oxa-7-azacyclopentadecan-15-one] | 0.5 ug/mi | 1 ug/mi | 2 ug/mi | 0.5 ug/mi | 1 ug/mi
2 | CC[C@H]1OC(=O)[C@H](C)[C@@H](O[C@H]2C[C@@](C)(OC)[C@](O)(CNCC(O)c3ccccc3)[C@H](C)O2)[C@H](C)[C@@H](O[C@@H]2O[C@H](C)C[C@H](N(C)C)[C@H]2O)[C@](C)(O)C[C@@H](C)NC[C@H](C)[C@@H](O)[C@]1(C)O (stereo partly drawn) [syzx-52, (2R,3S,4R,5S,8R,10R,11R,12S,13S,14R)-13-[(2,6-dideoxy-3-C-methyl-3-O-methyl-4-C-[(2-hydroxy-2-phenyl-ethylamino)-methyl]-α-L-ribopyranosyl)oxy]-2-ethyl-3,4,10-trihydroxy-3,5,8,10,12,14-hexamethyl-11-[[3,4,6-trideoxy-3-(dimethylamino)-β-D-xylo-hexopyranosy]oxy]-1-oxa-7-azacyclopentadecan-15-one] | 0.5 ug/mi | 32 ug/mi | ≦0.25 ug/mi | 0.5 ug/mi | 0.5 ug/mi
3 | CC[C@H]1OC(=O)[C@H](C)[C@@H](O[C@H]2C[C@@](C)(OC)[C@](O)(CNCCCC(OC)OC)[C@H](C)O2)[C@H](C)[C@@H](O[C@@H]2O[C@H](C)C[C@H](N(C)C)[C@H]2O)[C@](C)(O)C[C@@H](C)NC[C@H](C)[C@@H](O)[C@]1(C)O [syzx-56, (2R,3S,4R,5S,8R,10R,11R,12S,13S,14R)-13-[(2,6-dideoxy-3-C-methyl-3-O-methyl-4-C-[(4-dimethoxy-butylamino)-methyl]-α-L-ribopyranosyl)oxy]-2-ethyl-3,4,10-trihydroxy-3,5,8,10,12,14-hexamethyl-11-[[3,4,6-trideoxy-3-(dimethylamino)-β-D-xylo-hexopyranosy]oxy]-1-oxa-7-azacyclopentadecan-15-one] | 0.5 ug/mi | 0.25 ug/mi | 0.5 ug/mi | 1 ug/mi | 0.25 ug/mi
4 | CC[C@H]1OC(=O)[C@H](C)[C@@H](O[C@H]2C[C@@](C)(OC)[C@](O)(CNCc3ccc(Cl)c(Cl)c3)[C@H](C)O2)[C@H](C)[C@@H](O[C@@H]2O[C@H](C)C[C@H](N(C)C)[C@H]2O)[C@](C)(O)C[C@@H](C)NC[C@H](C)[C@@H](O)[C@]1(C)O [syzx-57, (2R,3S,4R,5S,8R,10R,11R,12S,13S,14R)-13-[(2,6-dideoxy-3-C-methyl-3-O-methyl-4-C-[(3,4-dichloro-benzylamino)-methyl]-α-L-ribopyranosyl)oxy]-2-ethyl-3,4,10-trihydroxy-3,5,8,10,12,14-hexamethyl-11-[[3,4,6-trideoxy-3-(dimethylamino)-β-D-xylo-hexopyranosy]oxy]-1-oxa-7-azacyclopentadecan-15-one] | ≦0.25 ug/mi | ≦0.25 ug/mi | ≦0.25 ug/mi | 32 ug/mi | 4 ug/mi
5 | CC[C@H]1OC(=O)[C@H](C)[C@@H](O[C@H]2C[C@@](C)(OC)[C@](O)(CNC(C)CCCN(C)C)[C@H](C)O2)[C@H](C)[C@@H](O[C@@H]2O[C@H](C)C[C@H](N(C)C)[C@H]2O)[C@](C)(O)C[C@@H](C)NC[C@H](C)[C@@H](O)[C@]1(C)O (stereo partly drawn) [syzx-59, (2R,3S,4R,5S,8R,10R,11R,12S,13S,14R)-13-[(2,6-dideoxy-3-C-methyl-3-O-methyl-4-C-[(1-methyl-4-dimethylaminobutylamino)-methyl]-α-L-ribopyranosyl)oxy]-2-ethyl-3,4,10-trihydroxy-3,5,8,10,12,14-hexamethyl-11-[[3,4,6-trideoxy-3-(dimethylamino)-β-D-xylo-hexopyranosy]oxy]-1-oxa-7-azacyclopentadecan-15-one] | 1 ug/mi | 32 ug/mi | 0.5 ug/mi | 2 ug/mi | 2 ug/mi
6 | CCC1OC(=O)C(C)C(OC2CC(C)(OC)C(O)(CNCCCNC3CCCCC3)C(C)O2)C(C)C(OC2OC(C)CC(N(C)C)C2O)C(C)(O)CC(C)NCC(C)C(O)C1(C)O [syzx-60, (2R,3S,4R,5S,8R,10R,11R,12S,13S,14R)-13-[(2,6-dideoxy-3-C-methyl-3-O-methyl-4-C-[[(3-cyclohexylamino)propylamino]-methyl]-α-L-ribopyranosyl)oxy]-2-ethyl-3,4,10-trihydroxy-3,5,8,10,12,14-hexamethyl-11-[[3,4,6-trideoxy-3-(dimethylamino)-β-D-xylo-hexopyranosy]oxy]-1-oxa-7-azacyclopentadecan-15-one] | 1 ug/mi | 8 ug/mi | 1 ug/mi | 2 ug/mi | 2 ug/mi
7 | C#CC=C(C)NC[C@]1(O)[C@H](C)O[C@@H](O[C@H]2[C@H](C)[C@@H](O[C@@H]3O[C@H](C)C[C@H](N(C)C)[C@H]3O)[C@](C)(O)C[C@@H](C)NC[C@H](C)[C@@H](O)[C@](C)(O)[C@@H](CC)OC(=O)[C@@H]2C)C[C@@]1(C)OC [syzx-62] | 0.5 ug/mi | 8 ug/mi | ≦0.25 ug/mi | 0.5 ug/mi | ≦0.25 ug/mi
8 | CCCC(C)NC[C@]1(O)[C@H](C)O[C@@H](O[C@H]2[C@H](C)[C@@H](O[C@@H]3O[C@H](C)C[C@H](N(C)C)[C@H]3O)[C@](C)(O)C[C@@H](C)NC[C@H](C)[C@@H](O)[C@](C)(O)[C@@H](CC)OC(=O)[C@@H]2C)C[C@@]1(C)OC (stereo partly shown) [syzx-63] | 0.5 ug/mi | 0.5 ug/mi | ≦0.25 ug/mi | ≦0.25 ug/mi | ≦0.25 ug/mi
9 | CC[C@H]1OC(=O)[C@H](C)[C@H](O[C@H]2C[C@@](C)(OC)[C@](O)(CNCCc3ccncc3)[C@H](C)O2)[C@H](C)[C@@H](O[C@@H]2O[C@H](C)C[C@H](N(C)C)[C@H]2O)[C@](C)(O)C[C@@H](C)NC[C@H](C)[C@@H](O)[C@]1(C)O [syzx-64] | ≦0.25 ug/mi | 0.5 ug/mi | ≦0.25 ug/mi | 0.25 ug/mi | 0.25 ug/mi
10 | CC[C@H]1OC(=O)[C@H](C)[C@@H](O[C@H]2C[C@@](C)(OC)[C@](O)(CNc3ccccc3F)[C@H](C)O2)[C@H](C)[C@@H](O[C@@H]2O[C@H](C)C[C@H](N(C)C)[C@H]2O)[C@](C)(O)C[C@@H](C)NC[C@H](C)[C@@H](O)[C@]1(C)O [syzx-68, (2R,3S,4R,5S,8R,10R,11R,12S,13S,14R)-13-[(2,6-dideoxy-3-C-methyl-3-O-methyl-4-C-[(2-fluoro-phenyl-amino)-methyl]-α-L-ribopyranosyl)oxy]-2-ethyl-3,4,10-trihydroxy-3,5,8,10,12,14-hexamethyl-11-[[3,4,6-trideoxy-3-(dimethylamino)-β-D-xylo-hexopyranosy]oxy]-1-oxa-7-azacyclopentadecan-15-one] | ≦0.25 ug/mi | 8 ug/mi | ≦0.25 ug/mi | 8 ug/mi | ≦0.25 ug/mi
11 | CC[C@H]1OC(=O)[C@H](C)[C@@H](O[C@H]2C[C@@](C)(OC)[C@](O)(CNCCCN3CCOCC3)[C@H](C)O2)[C@H](C)[C@@H](O[C@@H]2O[C@H](C)C[C@H](N(C)C)[C@H]2O)[C@](C)(O)C[C@@H](C)NC[C@H](C)[C@@H](O)[C@]1(C)O [syzx-69, (2R,3S,4R,5S,8R,10R,11R,12S,13S,14R)-13-[(2,6-dideoxy-3-C-methyl-3-O-methyl-4-C-[(3-morpholinyl-propyl-amino)-methyl]-α-L-ribopyranosyl)oxy]-2-ethyl-3,4,10-trihydroxy-3,5,8,10,12,14-hexamethyl-11-[[3,4,6-trideoxy-3-(dimethylamino)-β-D-xylo-hexopyranosy]oxy]-1-oxa-7-azacyclopentadecan-15-one] | 1 ug/mi | 1 ug/mi | 1 ug/mi | 0.5 ug/mi | 0.5 ug/mi
